Our source for the IC50 values is US10137202B2 (priority 2014, dated 2018).

The test deals with HT1080 cells. The format is cell-based, human. The note with it: read-out: IC50 (CPA assay; nM).

Square brackets hold non-standard residues; d marks the D form. Peptide text beside a SMILES is read from it. * marks the point of attachment. Dolaproine = CO[C@@H]([C@@H]1CCCN1)[C@@H](C)C(=O)O; Dil = CC[C@H](C)[C@H](NC)[C@@H](CC(=O)O)OC; X3 = C[C@@H](N*)[C@@H](O)c1ccccc1; NMeV = CN[C@H](C(=O)O)C(C)C

For the compound `CC[C@H](C)[C@@H]([C@@H](CC(=O)N1CCC[C@H]1[C@H](OC)[C@@H](C)C(=O)N[C@H](C)[C@@H](O)c1ccccc1)OC)N(C)C(=O)[C@@H](NC(=O)[C@@H](NC)C(C)C)C(C)C` [MMAE, reference compound] (H-[NMeV]V[Dil][Dolaproine]-X3), the half-maximal inhibitory concentration (IC50) lay within 0.1 to 0.6 nM.
